Data on 32 molecules can be found in patent EP2530078A1, “THIAZOLE DERIVATIVE” (Takeda Pharmaceutical Company Limited, priority 2010, dated 2011).

Where a name gives a salt, the structure may show the parent alone.

T1 sequence (Q9Y2T5 whole entry): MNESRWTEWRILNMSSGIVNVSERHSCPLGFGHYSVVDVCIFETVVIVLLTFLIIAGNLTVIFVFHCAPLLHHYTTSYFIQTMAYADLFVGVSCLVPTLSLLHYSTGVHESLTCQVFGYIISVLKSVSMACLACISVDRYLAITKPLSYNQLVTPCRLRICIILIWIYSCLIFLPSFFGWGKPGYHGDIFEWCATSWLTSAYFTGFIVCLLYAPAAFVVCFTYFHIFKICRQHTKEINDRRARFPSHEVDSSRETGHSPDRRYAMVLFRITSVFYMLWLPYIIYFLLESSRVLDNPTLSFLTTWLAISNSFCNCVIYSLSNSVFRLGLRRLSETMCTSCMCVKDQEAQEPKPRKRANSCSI

The first assay has as its target T1, human GPR52 (Homo sapiens, UniProt Q9Y2T5).
T1 construct: expressed in transfected cells; host or cells: CHO(dhfr-) cells
As to the kind of experiment: Increase of intracellular cAMP concentration in human GPR52-expressing CHO cell (AlphaScreen cAMP assay). The conditions noted are these: 0.5 h; test compound 10 µm, 37°C, 30 min, human GPR52-expressing CHO(dhfr-) cells; 100% = cAMP with 1 µM N-(2-hydroxyethyl)-3-[2-[3-(trifluoromethyl)benzyl]-1-benzofuran-4-yl]benzamide, 0% = DMSO; read-out: GPR52 agonist activity (%). Type of assay: cell-based. As to the method: Increase of intracellular cAMP concentration in human GPR52-expressing CHO cell
Using OptiPlate-384 (PerkinElmer Inc.), 1×10^4 human GPR52-expressing CHO(dhfr-) cells were incubated together with a test compound ([…]) in an assay buffer (30 µL, HBSS (containing Ca^2+ and Mg^2+), 0.5% BSA, 100 µM IBMX, 100 µM Ro20-1724, 5 mM HEPES (pH 7.55)) at 37°C for 30 min. Thereafter, according to the protocol of AlphaScreen cAMP Assay Kit (PerkinElmer Inc.), the intracellular cAMP concentration was measured by EnVision (PerkinElmer Inc.). The GPR52 agonist activity was calculated, assuming the intracellular cAMP concentration in the presence of 1 µM N-(2-hydroxyethyl)-3-[2-[3-(trifluoromethyl)benzyl]-1-benzofuran-4-yl]benzamide to be 100% and assuming the intracellular cAMP concentration when DMSO was added instead of the test compound to be 0%.
As to `COCCNC(=O)[C@@H]1C[C@H]1C(=O)Nc1sc(Cc2cc(F)cc(Cl)c2)nc1C` (relative stereo) [Example 189, trans-N-[2-(3-chloro-5-fluorobenzyl)-4-methyl-1,3-thiazol-5-yl]-N'-(2-methoxyethyl)cyclopropane-1,2-dicarboxamide], the activation at 10 µM is 78%.
On the same count and under the same terms, the result for `COC(=O)[C@@H]1C[C@@H]1C(=O)Nc1sc(Cc2cc(F)cc(Cl)c2)nc1C` (relative stereo) [Example 190, methyl cis-2-{[2-(3-chloro-5-fluorobenzyl)-4-methyl-1,3-thiazol-5-yl]carbamoyl}cyclopropanecarboxylate] reads 82%; that for `Cn1nccc1C(=O)Nc1cnc(Cc2cccc(C(F)(F)F)c2)s1` [Example 1, 1-methyl-N-{2-[3-(trifluoromethyl)benzyl]-1,3-thiazol-5-yl}-1H-pyrazole-5-carboxamide], 92%.
Regarding `CCN1CC(C(=O)Nc2sc(Cc3cccc(C(F)(F)F)c3)nc2C)CC1=O` (centres unmarked) [Example 4, 1-ethyl-N-(4-methyl-2-[3-(trifluoromethyl)benzyl]-1,3-thiazol-5-yl}-5-oxopyrrolidine-3-carboxamide], the activation at 10 µM came out at 72%.
Still for that read-out and setting: the result for `Cn1nccc1C(=O)Nc1sc(Cc2cccc(C(F)(F)F)c2)nc1CO` [Example 6, N-{4-(hydroxymethyl)-2-[3-(trifluoromethyl)benzyl]-1,3-thiazol-5-yl}-1-methyl-1H-pyrazole-5-carboxamide] reads 83%; that for `COCc1nc(Cc2cccc(C(F)(F)F)c2)sc1NC(=O)c1ccnn1C` [Example 8, N-{4-(methoxymethyl)-2-[3-(trifluoromethyl)benzyl]-1,3-thiazol-5-yl}-1-methyl-1H-pyrazole-5-carboxamide], 78%; that for `CCc1nc(Cc2cccc(C(F)(F)F)c2)sc1NC(=O)c1ccnn1C` [Example 11, N-{4-ethyl-2-[3-(trifluoromethyl)benzyl]-1,3-thiazol-5-yl}-1-methyl-1H-pyrazole-5-carboxamide], 92%.
Consider `C=Cc1nc(Cc2cccc(C(F)(F)F)c2)sc1NC(=O)c1ccnn1C` [Example 12, N-{4-ethenyl-2-[3-(trifluorornethyl)benzyl]-1,3-thiazol-5-yl}-1-methyl-1H-pyrazole-5-carboxamide], for which the activation at 10 µM was found to be 75%.
Regarding `CCCc1nc(Cc2cccc(C(F)(F)F)c2)sc1NC(=O)c1ccnn1C` [Example 14, 1-methyl-N-{4-propyl-2-[3-(trifluoromethyl)benzyl]-1,3-thiazol-5-yl}-1H-pyrazole-5-carboxamide], the activation at 10 µM is 80%.
On to `CCCCc1nc(Cc2cccc(C(F)(F)F)c2)sc1NC(=O)c1ccnn1C` [Example 16, N-{4-butyl-2-[3-(trifluoromethyl)benzyl]-1,3-thiazol-5-yl}-1-methyl-1H-pyrazole-5-carboxamide], for which the activation at 10 µM was 72%.
The same measure, in the same setting: for `Cn1nccc1C(=O)Nc1sc(Cc2cccc(C(F)(F)F)c2)nc1C(F)(F)F` [Example 17, 1-methyl-N-{4-(trifluoromethyl)-2-[3-(trifluoromethyl)benzyl]-1,3-thiazol-5-yl}-1H-pyrazole-5-carboxamide] the value was 94%; for `CC(=O)N1CCC(C(=O)Nc2sc(Cc3cccc(C(F)(F)F)c3)nc2C)C1` (centres unmarked) [Example 21, 1-acetyl-N-{4-methyl-2-[3-(trifluoromethyl)benzyl]-1,3-thiazol-5-yl}pyrrolidine-3-carboxamide], 69%.
Take `Cc1nc(Cc2cccc(C(F)(F)F)c2)sc1NC(=O)C1CCCNC1` (centres unmarked) [Example 29, N-{4-methyl-2-[3-(trifluoromethyl)benzyl]-1,3-thiazol-5-yl}piperidine-3-carboxamide hydrochloride]: the activation at 10 µM came out at 71%.
Same read-out and setting: the result for `Cc1nc(Cc2cccc(C(F)(F)F)c2)sc1NC(=O)C1CCNCC1` [Example 33, N-{4-methyl-2-[3-(trifluoromethyl)benzyl]-1,3-thiazol-5-yl}piperidine-4-carboxamide hydrochloride] reads 70%.
Still for that read-out and setting: the result for `Cc1nc(Cc2cccc(C(F)(F)F)c2)sc1NC(=O)C1(C#N)CC1` [Example 39, 1-cyano-N-{4-methyl-2-[3-(trifluoromethyl)benzyl]-1,3-thiazol-5-yl}cyclopropanecarboxamide] reads 79%; that for `Cc1nc(Cc2cccc(C(F)(F)F)c2)sc1NC(=O)c1ccoc1C` [Example 40, 2-methyl-N-{4-methyl-2-[3-(trifluoromethyl)-benzyl]-1,3-thiazol-5-yl}furan-3-carboxamide], 80%; that for `Cc1nc(Cc2cccc(C(F)(F)F)c2)sc1NC(=O)c1nccn1C` [Example 41, 1-methyl-N-{4-methyl-2-[3-(trifluoromethyl)-benzyl]-1,3-thiazol-5-yl}-1H-imidazole-2-carboxamide], 72%.
The same measure, in the same setting: for `Cc1nc(Cc2cccc(C(F)(F)F)c2)sc1NC(=O)c1cncn1C` [Example 43, 1-methyl-N-{4-methyl-2-[3-(trifluoromethyl)-benzyl]-1,3-thiazol-5-yl}-1H-imidazole-5-carboxamide] the value was 73%; for `Cc1nc(Cc2cccc(C(F)(F)F)c2)sc1NC(=O)c1c(C)nn(C)c1C` [Example 47, 1,3,5-trimethyl-N-{4-methyl-2-[3-(trifluoromethyl)-benzyl]-1,3-thiazol-5-yl}-1H-pyrazole-4-carboxamide], 82%; for `Cc1nc(Cc2cccc(C(F)(F)F)c2)sc1NC(=O)c1c(C)nn(C)c1Cl` [Example 51, 5-chloro-1,3-dimethyl-N-{4-methyl-2-[3-(trifluoromethyl)-benzyl]-1,3-thiazol-5-yl}-1H-pyrazole-4-carboxamide], 77%.
As to `CSc1ncccc1C(=O)Nc1sc(Cc2cccc(C(F)(F)F)c2)nc1C` [Example 76, 2-(methylsulfanyl)-N-{4-methyl-2-[3-(trifluoromethyl)-benzyl]-1,3-thiazol-5-yl}pyridine-3-carboxamide], the activation at 10 µM came to 86%.
Same read-out and setting: the result for `Cc1nc(Cc2cccc(C(F)(F)F)c2)sc1NC(=O)c1ccnn1C` [Example 110, 1-methyl-N-{4-methyl-2-[3-(trifluoromethyl)-benzyl]-1,3-thiazol-5-yl}-1H-pyrazole-5-carboxamide] reads 82%.
As to `Cc1nc(Cc2cccc(C(F)(F)F)c2)sc1NC(=O)c1ccc(CCN2CCCC2)nc1` [Example 122, N-{4-methyl-2-[3-(trifluoromethyl)-benzyl]-1,3-thiazol-5-yl}-6-(2-pyrrolidin-1-ylethyl)pyridine-3-carboxamide], the activation at 10 µM amounted to 96%.
For the molecule `Cc1cc(C(=O)Nc2sc(Cc3cc(F)cc(Cl)c3)nc2C)n(C)n1` [Example 147, N-[2-(3-chloro-5-fluorobenzyl)-4-methyl-1,3-thiazol-5-yl]-1,3-dimethyl-1H-pyrazole-5-carboxamide], the activation at 10 µM turned out to be 78%.
Regarding `Cc1nc(Cc2cc(F)cc(Cl)c2)sc1NC(=O)c1cc(Cl)nn1C` [Example 149, 3-chloro-N-[2-(3-chloro-5-fluorobenzyl)-4-methyl-1,3-thiazol-5-yl]-1-methyl-1H-pyrazole-5-carboxamide], the activation at 10 µM amounted to 75%.
Still for that read-out and setting: for `Cc1nc(Cc2cc(F)cc(Cl)c2)sc1NC(=O)c1ccnn1C(F)F` [Example 150, N-[2-(3-chloro-5-fluorobenzyl)-4-methyl-1,3-thiazol-5-yl]-1-(difluoromethyl)-1H-pyrazole-5-carboxamide] the value was 69%; for `Cc1nc(Cc2cc(F)cc(Cl)c2)sc1NC(=O)c1ccnn1C(C)C` [Example 151, N-[2-(3-chloro-5-fluorobenzyl)-4-methyl-1,3-thiazol-5-yl]-1-(1-methylethyl)-1H-pyrazole-5-carboxamide], 69%.

The same assay, now with this note: test compound 10 µm, 37°C, 30 min, human GPR52-expressing CHO(dhfr-) cells; 100% = cAMP with 1 µM N-(2-hydroxyethyl)-3-[2-[3-(trifluoromethyl)benzyl]-1-benzofuran-4-yl]benzamide, 0% = DMSO.
For the molecule `Cc1nc(Cc2cccc(C(F)(F)F)c2)sc1NC(=O)C1CCNC1` (centres unmarked) [Example 20, N-{4-methyl-2-[3-(trifluoromethyl)benzyl]-1,3-thiazol-5-yl}pyrrolidine-3-carboxamide hydrochloride], the “GPR52 agonist activity (%)” value came to 74%.
With `CCNC(=O)N1CCC(C(=O)Nc2sc(Cc3cccc(C(F)(F)F)c3)nc2C)C1` (centres unmarked) [Example 23, N1-ethyl-N3-{4-methyl-2-[3-(trifluoromethyl)benzyl]-1,3-thiazol-5-yl}pyrrolidine-1,3-dicarboxamide], the “GPR52 agonist activity (%)” value stood at 80%.
Take `Cc1nocc1C(=O)Nc1sc(Cc2cccc(C(F)(F)F)c2)nc1C` [Example 24, 3-methyl-N-{4-methyl-2-[3-(trifluoromethyl)benzyl]-1,3-thiazol-5-yl}isoxazole-4-carboxamide]: the “GPR52 agonist activity (%)” value turned out to be 93%.
On the same count and under the same terms, for `Cc1cc(C(=O)Nc2sc(Cc3cccc(C(F)(F)F)c3)nc2C)c(C)o1` [Example 26, 2,5-dimethyl-N-{4-methyl-2-[3-(trifluoromethyl)benzyl]-1,3-thiazol-5-yl}furan-3-carboxamide] the value was 78%; for `CCS(=O)(=O)N1CCC(C(=O)Nc2sc(Cc3cccc(C(F)(F)F)c3)nc2C)C1` (centres unmarked) [Example 30, 1-(ethylsulfonyl)-N-(4-methyl-2-[3-(trifluoromethyl)benzyl]-1,3-thiazol-5-yl}pyrrolidine-3-carboxamide], 81%.
